Reference: US11752131B2, “Methods and pharmaceutical compositions for the treatment of obesity” (INSERM (Institut National de la Sante et de la Recherche …, priority 2016, dated 2023)

How the values were obtained:
[1] = test system: HFD-fed mice; experiment: Oral glucose tolerance test (OGTT) with HOMA-IR index in HFD-fed mice; type: in vivo; settings: after 9 or 20 wks of HFD, normalized to fat mass (FIG. 3), versus Bl6 mice
Method: (§1) C57BL/6 Ido-1−/− mice were from the Jackson Laboratory. Seven week-old Bl6 and Idoko male mice were subjected to HFD containing 60% fat during 20 weeks.
The oral glucose tolerance test was performed in mice food deprived for overnight prior to an oral administration of 3 g/kg glucose. Blood was sampled from the tail vein at 0, 5, 15, 30, 60 and 120 min in order to assay glucose concentration (glucometer, France). Plasma insulin concentration was measured using ELISA kit (Crystal Chem Inc., Downers Grove, Ill., USA). HOMA-IR in mice was calculated using the equation (fasting glucose concentration×fasting insulin concentration)/405).
Moreover, the insulin resistance index (HOMA-IR) was lower in Ido KO mice or L1MT-treated mice after 9 or 20 wks of HFD (FIG. 3).

[2] = test system: HFD-fed mice; experiment: Insulin tolerance test (ITT) in HFD-fed mice; type: in vivo; settings: after 9 wks of HFD (FIG. 2A) and 20 wks of FAT diet (FIG. 2B), insulin 0.75 U/kg i.p., adjusted on percentage of fat mass gained
Method: as §1
Insulin tolerance tests (ITT) was performed in mice food deprived 5 h prior intraperitoneal injection of insulin (0.75 U/kg). Blood was sampled from the tail vein at 0, 5, 15, 30, 60 and 120 min in order to assay glucose concentration (glucometer, France).
We next examined the effect of Ido deficiency or inhibition on glucose homeostasis in HFD-fed mice. To this end, we performed insulin tolerance tests (ITT) on Bl6, Idoko mice and Ido inhibitor (L-1 methyl tryptophan, L-1MT)-treated mice after 9 wks or 20 wks of HFD.

For `Cn1cc(C[C@H](N)C(=O)O)c2ccccc21` [L-1MT, L-1 methyl tryptophan], the “insulin resistance index (HOMA-IR)” value [1] was “lower” and the “insulin sensitivity in insulin tolerance test (ITT) versus Bl6 mice” value [2] was “more insulin sensitive”.
